Experimental data reported in ChEMBL document CHEMBL1154412, “In vitro activity of telavancin against gram-positive clinical isolates recently obtained in Europe” (Antimicrob Agents Chemother, 2007).
In brackets after ≈: the same amount, converted by molar mass.

Columns and labels:
Type in all cases: functional
Staphylococcus aureus [1] = experiment: Antimicrobial activity against methicillin-susceptible Staphylococcus aureus after 20 to 24 hrs by broth microdilution method
Staphylococcus aureus [2] = experiment: Antimicrobial activity against methicillin-resistant Staphylococcus aureus after 20 to 24 hrs by broth microdilution method
Staphylococcus [3] = experiment: Antimicrobial activity against methicillin-susceptible coagulase-negative Staphylococcus after 20 to 24 hrs by broth microdilution method
Staphylococcus [4] = experiment: Antimicrobial activity against methicillin-resistant coagulase-negative Staphylococcus after 20 to 24 hrs by broth microdilution method
Enterococcus faecalis [5] = experiment: Antimicrobial activity against vancomycin-susceptible Enterococcus faecalis after 20 to 24 hrs by broth microdilution method
Enterococcus faecalis [6] = experiment: Antimicrobial activity against vancomycin-resistant Enterococcus faecalis after 20 to 24 hrs by broth microdilution method
Enterococcus faecium [7] = experiment: Antibacterial activity against vancomycin-susceptible Enterococcus faecium after 20 to 24 hrs by broth microdilution method
Enterococcus faecium [8] = experiment: Antibacterial activity against vancomycin-resistant Enterococcus faecium after 20 to 24 hrs by broth microdilution method
Streptococcus pneumoniae [9] = experiment: Antibacterial activity against penicillin-susceptible Streptococcus pneumoniae after 20 to 24 hrs by broth microdilution method
Streptococcus pneumoniae [10] = experiment: Antibacterial activity against penicillin-intermediate Streptococcus pneumoniae after 20 to 24 hrs by broth microdilution method
Streptococcus pneumoniae [11] = experiment: Antibacterial activity against penicillin-resistant Streptococcus pneumoniae after 20 to 24 hrs by broth microdilution method
[12] = system: Streptococcus sp. 'group B'; experiment: Antimicrobial activity against Streptococcus group B after 20 to 24 hrs by broth microdilution method
Streptococcus viridans = experiment: Antimicrobial activity against Streptococcus viridans after 20 to 24 hrs by broth microdilution method
[13] = system: Streptococcus sp. 'group A'; experiment: Antimicrobial activity against Streptococcus group A after 20 to 24 hrs by broth microdilution method

SMILES	MIC50 (Staphylococcus aureus [1]) [µg/mL]	MIC90 (Staphylococcus aureus [1]) [µg/mL]	MIC50 (Staphylococcus aureus [2]) [µg/mL]	MIC90 (Staphylococcus aureus [2]) [µg/mL]	MIC50 (Staphylococcus [3]) [µg/mL]	MIC90 (Staphylococcus [3]) [µg/mL]	MIC50 (Staphylococcus [4]) [µg/mL]	MIC90 (Staphylococcus [4]) [µg/mL]	MIC50 (Streptococcus pneumoniae [9]) [µg/mL]	MIC90 (Streptococcus pneumoniae [9]) [µg/mL]	MIC50 (Streptococcus pneumoniae [10]) [µg/mL]	MIC90 (Streptococcus pneumoniae [10]) [µg/mL]	MIC50 (Streptococcus pneumoniae [11]) [µg/mL]	MIC90 (Streptococcus pneumoniae [11]) [µg/mL]	MIC50 [12] [µg/mL]	MIC90 [12] [µg/mL]	MIC50 (Streptococcus viridans) [µg/mL]	MIC90 (Streptococcus viridans) [µg/mL]	MIC50 [13] [µg/mL]	MIC90 [13] [µg/mL]	other results
CC(=O)NC[C@H]1CN(c2ccc(N3CCOCC3)c(F)c2)C(=O)O1 [LINEZOLID]	2 (≈ 5.93 µM)	2 (≈ 5.93 µM)	2 (≈ 5.93 µM)	2 (≈ 5.93 µM)	1 (≈ 2.96 µM)	2 (≈ 5.93 µM)	2 (≈ 5.93 µM)	2 (≈ 5.93 µM)	1 (≈ 2.96 µM)	1 (≈ 2.96 µM)	1 (≈ 2.96 µM)	1 (≈ 2.96 µM)	1 (≈ 2.96 µM)	1 (≈ 2.96 µM)	1 (≈ 2.96 µM)	1 (≈ 2.96 µM)	1 (≈ 2.96 µM)	1 (≈ 2.96 µM)	–	–	MIC (Staphylococcus [3]): 1 µg/mL (≈ 2.96 µM); MIC50 (Enterococcus faecalis [5]): 2 µg/mL (≈ 5.93 µM); MIC90 (Enterococcus faecalis [5]): 2 µg/mL (≈ 5.93 µM); MIC50 (Enterococcus faecalis [6]): 2 µg/mL (≈ 5.93 µM); MIC90 (Enterococcus faecalis [6]): 2 µg/mL (≈ 5.93 µM); MIC50 (Enterococcus faecium [7]): 2 µg/mL (≈ 5.93 µM); MIC90 (Enterococcus faecium [7]): 2 µg/mL (≈ 5.93 µM); MIC50 (Enterococcus faecium [8]): 2 µg/mL (≈ 5.93 µM); MIC90 (Enterococcus faecium [8]): 2 µg/mL (≈ 5.93 µM)
CC1(C)S[C@@H]2[C@H](NC(=O)[C@H](N)c3ccccc3)C(=O)N2[C@H]1C(=O)O [AMPICILLIN]	–	–	–	–	–	–	–	–	–	–	–	–	–	–	–	–	–	–	–	–	MIC50 (Enterococcus faecalis [5]): 1 µg/mL (≈ 2.86 µM); MIC90 (Enterococcus faecalis [5]): 2 µg/mL (≈ 5.72 µM); MIC (Enterococcus faecalis [6]): 1 µg/mL (≈ 2.86 µM); MIC50 (Enterococcus faecalis [6]): 1 µg/mL (≈ 2.86 µM); MIC90 (Enterococcus faecalis [6]): 4 µg/mL (≈ 11.4 µM); MIC50 (Enterococcus faecium [7]): 64 µg/mL (≈ 183 µM); MIC90 (Enterococcus faecium [7]): 128 µg/mL (≈ 366 µM); MIC50 (Enterococcus faecium [8]): 128 µg/mL (≈ 366 µM); MIC90 (Enterococcus faecium [8]): 128 µg/mL (≈ 366 µM)
C[C@H]1COc2c(N3CCN(C)CC3)c(F)cc3c(=O)c(C(=O)O)cn1c23.C[C@H]1COc2c(N3CCN(C)CC3)c(F)cc3c(=O)c(C(=O)O)cn1c23.O [LEVOFLOXACIN]	–	–	–	–	–	–	–	–	0.5	1	0.5	1	0.5	4	0.5	1	0.5	1	0.5	0.5	–
CC[C@H]1OC(=O)[C@H](C)[C@@H](O[C@H]2C[C@@](C)(OC)[C@@H](O)[C@H](C)O2)[C@H](C)[C@@H](O[C@@H]2O[C@H](C)C[C@H](N(C)C)[C@H]2O)[C@](C)(O)C[C@@H](C)C(=O)[C@H](C)[C@@H](O)[C@]1(C)O [ERYTHROMYCIN]	0.5 (≈ 0.681 µM)	> 16	> 16	–	0.25 (≈ 0.341 µM)	> 16	> 16	–	0.03 (≈ 0.0409 µM)	0.06 (≈ 0.0818 µM)	0.03 (≈ 0.0409 µM)	> 1	> 1	–	0.03 (≈ 0.0409 µM)	0.5 (≈ 0.681 µM)	0.03 (≈ 0.0409 µM)	> 1	0.03 (≈ 0.0409 µM)	0.06 (≈ 0.0818 µM)	–
CNC1C(O)C(OC2C(N)CC(N)C(OC3OC(CN)CCC3N)C2O)OCC1(C)O (centres undefined) [GENTAMICIN C1A]	0.25 (≈ 0.556 µM)	1 (≈ 2.22 µM)	0.5 (≈ 1.11 µM)	> 16	≤ 0.06	≤ 0.06	8 (≈ 17.8 µM)	> 16	–	–	–	–	–	–	–	–	–	–	–	–	MIC (Staphylococcus [3]): ≤ 0.06 µg/mL
CO/N=C(\C(=O)N[C@@H]1C(=O)N2C(C(=O)O)=C(CSc3nc(=O)c(O)nn3C)CS[C@H]12)c1csc(N)n1 [CEFTRIAXONE]	–	–	–	–	–	–	–	–	0.03 (≈ 0.0541 µM)	0.03 (≈ 0.0541 µM)	0.12 (≈ 0.216 µM)	1 (≈ 1.8 µM)	1 (≈ 1.8 µM)	2 (≈ 3.61 µM)	0.06 (≈ 0.108 µM)	0.06 (≈ 0.108 µM)	0.12 (≈ 0.216 µM)	2 (≈ 3.61 µM)	0.03 (≈ 0.0541 µM)	0.03 (≈ 0.0541 µM)	–
CC[C@H]1OC(=O)[C@H](C)C(=O)[C@H](C)[C@@H](O[C@@H]2O[C@H](C)C[C@H](N(C)C)[C@H]2O)[C@](C)(OC)C[C@@H](C)C(=O)[C@H](C)[C@H]2N(CCCCn3cnc(-c4cccnc4)c3)C(=O)O[C@]12C [TELITHROMYCIN]	0.12 (≈ 0.148 µM)	0.12 (≈ 0.148 µM)	0.12 (≈ 0.148 µM)	> 8	0.06 (≈ 0.0739 µM)	0.5 (≈ 0.616 µM)	0.12 (≈ 0.148 µM)	> 8	0.008 (≈ 0.00985 µM)	0.008 (≈ 0.00985 µM)	0.008 (≈ 0.00985 µM)	0.25 (≈ 0.308 µM)	0.015 (≈ 0.0185 µM)	0.03 (≈ 0.0369 µM)	0.015 (≈ 0.0185 µM)	0.015 (≈ 0.0185 µM)	0.008 (≈ 0.00985 µM)	0.12 (≈ 0.148 µM)	0.015 (≈ 0.0185 µM)	0.015 (≈ 0.0185 µM)	–
CO/N=C(\C(=O)N[C@@H]1C(=O)N2C(C(=O)O)=C(COC(N)=O)CS[C@H]12)c1ccco1 [CEFUROXIME]	–	–	–	–	–	–	–	–	≤ 0.12	≤ 0.12	0.5 (≈ 1.18 µM)	4 (≈ 9.43 µM)	> 4	> 4	≤ 0.12	≤ 0.12	≤ 0.12	2 (≈ 4.71 µM)	≤ 0.12	≤ 0.12	MIC (Streptococcus pneumoniae [9]): ≤ 0.12 µg/mL; MIC (Streptococcus pneumoniae [11]): ≥ 4 µg/mL; MIC [13]: ≤ 0.12 µg/mL; MIC [12]: ≤ 0.12 µg/mL; MIC (Streptococcus viridans): ≤ 0.12 µg/mL
Cc1onc(-c2ccccc2)c1C(=O)N[C@@H]1C(=O)N2[C@@H]1SC(C)(C)[C@@H]2C(=O)O [OXACILLIN]	0.25 (≈ 0.623 µM)	0.5 (≈ 1.25 µM)	> 4	> 4	0.12 (≈ 0.299 µM)	0.12 (≈ 0.299 µM)	> 4	> 4	–	–	–	–	–	–	–	–	–	–	–	–	–
CN(C)[C@@H]1C(O)=C(C(N)=O)C(=O)[C@@]2(O)C(O)=C3C(=O)c4c(O)cccc4[C@@](C)(O)[C@H]3C[C@@H]12 [TETRACYCLINE]	–	–	–	–	–	–	–	–	0.12 (≈ 0.27 µM)	0.25 (≈ 0.563 µM)	0.25 (≈ 0.563 µM)	> 8	0.25 (≈ 0.563 µM)	–	> 8	> 8	0.5 (≈ 1.13 µM)	> 8	0.12 (≈ 0.27 µM)	> 8	MIC [13]: 0.12 µg/mL (≈ 0.27 µM)
CCC[C@@H]1C[C@@H](C(=O)N[C@@H]([C@H]2O[C@H](SC)[C@H](O)[C@@H](O)[C@H]2O)[C@H](C)Cl)N(C)C1 [CLINDAMYCIN]	≤ 0.5	≤ 0.5	–	> 4	≤ 0.5	≤ 0.5	–	> 4	0.06 (≈ 0.141 µM)	0.06 (≈ 0.141 µM)	0.06 (≈ 0.141 µM)	> 0.25	> 0.25	–	0.06 (≈ 0.141 µM)	0.06 (≈ 0.141 µM)	≤ 0.03	> 0.25	≤ 0.03	0.06 (≈ 0.141 µM)	MIC (Staphylococcus aureus [1]): ≤ 0.5 µg/mL; MIC (Staphylococcus [3]): ≤ 0.5 µg/mL; MIC [13]: ≤ 0.03 µg/mL; MIC (Streptococcus viridans): ≤ 0.03 µg/mL
O=C(O)c1cn(C2CC2)c2cc(N3CCNCC3)c(F)cc2c1=O [CIPROFLOXACIN]	0.25 (≈ 0.754 µM)	1 (≈ 3.02 µM)	> 8	> 8	–	–	2 (≈ 6.04 µM)	> 8	–	–	–	–	–	–	–	–	–	–	–	–	MIC50 (Enterococcus faecalis [5]): 1 µg/mL (≈ 3.02 µM); MIC90 (Enterococcus faecalis [5]): > 32 µg/mL; MIC50 (Enterococcus faecalis [6]): 1 µg/mL (≈ 3.02 µM); MIC50 (Enterococcus faecium [8]): 32 µg/mL (≈ 96.6 µM)
